# Patent US5143920A, “Substituted 4-aminoquinoline derivatives as gastric secretion inhibitors” (SmithKline Beckman Intercredit B.V., priority 1988, dated 1992)
# Target: T1, H^+ K^+ ATPase (Sus scrofa, UniProt P19156)
# T1 construct: Lyophilised gastric vesicles were prepared from pig fundic mucosa; from tissue; host or cells: pig fundic mucosa (lyophilised gastric vesicles)
# Assay: K^+ -stimulated ATPase activity in lyophilised gastric vesicles (H^+ K^+ ATPase Activity)
# Format: biochemical
# Settings: inhibition of K^+ -stimulated ATPase activity, lyophilised gastric vesicles from pig fundic mucosa, 37° C., pH 7.0, 1 mM KCl, 2 mM Na2 ATP, 30 minutes
# Method: The effects of a single high concentration ([…]) of a compound of structure (I) on K^+ -stimulated ATPase activity in lyophilised gastric vesicles was determined. Preferred compounds of structure (I) were also tested over a range of concentrations to determine IC50 values.
# Lyophilised gastric vesicles were prepared from pig fundic mucosa after the method of Keeling et. al. (Biochem. Pharmacol, 34, 2967, 1985).
# K^+ -stimulated ATPAse activity was determined at 37° C. in the presence of the following: 10 mM Pipes/Tris buffer pH 7.0, 2 mM MgSO4, 1 mM KCl, 2 mM Na2 ATP and […] lyophilised gastric vesicles. After incubation for 30 minutes, the inorganic phosphate hydrolysed from ATP was determined by the method of Yoda and Hokin (Biochem. Biophys, Res. Commun. 40, 880, 1970).
# Compounds of structure (I) were dissolved in dimethylsulphoxide which up to the highest concentration used had no effect on K^+ -stimulated ATPase activity.
# The effect of the highest concentration of each compound of structure (I) on the recovery of a standard amount of inorganic phosphate was also determined.
# T1 sequence (P19156 2-1034 limits assumed): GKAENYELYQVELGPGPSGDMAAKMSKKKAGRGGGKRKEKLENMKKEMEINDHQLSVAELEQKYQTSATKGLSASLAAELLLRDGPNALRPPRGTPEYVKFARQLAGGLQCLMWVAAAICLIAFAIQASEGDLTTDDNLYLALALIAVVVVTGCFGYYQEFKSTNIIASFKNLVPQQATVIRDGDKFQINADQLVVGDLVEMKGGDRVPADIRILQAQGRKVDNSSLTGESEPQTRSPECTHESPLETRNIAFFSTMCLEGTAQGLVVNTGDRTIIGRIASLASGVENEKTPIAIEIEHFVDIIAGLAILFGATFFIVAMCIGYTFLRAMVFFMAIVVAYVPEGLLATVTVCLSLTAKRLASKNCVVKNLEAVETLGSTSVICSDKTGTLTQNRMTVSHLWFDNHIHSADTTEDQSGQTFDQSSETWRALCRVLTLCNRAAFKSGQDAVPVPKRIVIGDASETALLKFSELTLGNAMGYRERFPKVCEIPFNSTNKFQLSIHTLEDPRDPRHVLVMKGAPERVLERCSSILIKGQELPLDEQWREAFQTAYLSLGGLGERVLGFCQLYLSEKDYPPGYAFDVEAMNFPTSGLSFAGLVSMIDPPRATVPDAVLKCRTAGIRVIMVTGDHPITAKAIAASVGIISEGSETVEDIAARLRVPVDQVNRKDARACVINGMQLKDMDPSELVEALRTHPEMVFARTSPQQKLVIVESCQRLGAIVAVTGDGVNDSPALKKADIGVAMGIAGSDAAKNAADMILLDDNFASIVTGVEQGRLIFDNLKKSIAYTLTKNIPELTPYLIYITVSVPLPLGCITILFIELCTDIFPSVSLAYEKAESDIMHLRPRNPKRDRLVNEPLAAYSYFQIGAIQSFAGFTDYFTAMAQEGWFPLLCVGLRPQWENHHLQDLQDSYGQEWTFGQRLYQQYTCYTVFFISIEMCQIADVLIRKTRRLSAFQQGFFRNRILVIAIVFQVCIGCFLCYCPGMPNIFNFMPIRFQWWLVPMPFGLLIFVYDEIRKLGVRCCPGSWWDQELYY
# T1 sequence (P18434 whole entry partner): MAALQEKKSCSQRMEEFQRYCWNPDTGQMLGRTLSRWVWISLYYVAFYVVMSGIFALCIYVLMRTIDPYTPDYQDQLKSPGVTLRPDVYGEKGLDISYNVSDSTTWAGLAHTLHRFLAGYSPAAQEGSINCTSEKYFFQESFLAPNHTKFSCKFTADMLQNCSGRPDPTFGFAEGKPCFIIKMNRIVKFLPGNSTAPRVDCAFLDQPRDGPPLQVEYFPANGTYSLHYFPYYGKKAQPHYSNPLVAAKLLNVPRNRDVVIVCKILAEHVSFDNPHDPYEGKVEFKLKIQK
row,Structure (SMILES),IC50 [nM]
1,"CCOC(=O)c1cnc2c(OC)cccc2c1Nc1ccc(O)cc1C [Compound 9, Ethyl 8-methoxy-4-(4-hydroxy-2-methylphenylamino)-quinoline-3-carboxylate]",80
2,"COc1cccc2c(Nc3ccc(O)cc3C)c(C(=O)C(C)C)cnc12 [Compound 12, 3-isobutyryl-4-(4-hydroxy-2-methylphenylamino)-8-methoxyquinoline]",160
3,"CCCC(=O)c1cnc2ccc(O)cc2c1Nc1ccc(O)cc1C [Compound 16, 3-butyryl-4-(4-hydroxy-2-methylphenylamino)-6-hydroxyquinoline]",70
4,"CCCC(=O)c1cnc2c(OC)cc(O)cc2c1Nc1ccc(O)cc1C [Compound 17, 3-butyryl-4-(4-hydroxy-2-methylphenylamino)-6-hydroxy-8-methoxyquinoline]",1300
